Experimental findings from ChEMBL document CHEMBL1201862, “PubChem BioAssay data set” (2004) are described below.

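Step 1: Grow cells in 96-well plates. Step 2: Expose to compound for 48 hours at 5 concentrations. Step 3: Interpolate endpoints linearly; if unreached, use highest concentration. The concentration for 50% growth inhibition is given as GI50.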 The source made the active and inactive calls. Rule as the data show it: active = GI50 up to about 1.1 µM and inactive = higher. A value given as a limit tells only on which side of the number the result lay.

Among the test systems are A498; A549; BT-549; HCT-15; HOP-62; HOP-92; IGROV-1; K562; KM12; M14; NCI-H23; NCI-H522; OVCAR-4; SK-MEL-28; TK-10; COLO 205; MCF7; RPMI-8226; T47D; SK-OV-3.
Experiment in all cases: DTP human tumour cell line panel, 48 h

Regarding `CC1(CCOCc2ccccc2)NC(=O)NC1=O` (stereo not given), the GI50 in the assay with A498 is > 100 µM (inactive); in the assay on A549, > 100 µM (inactive); with BT-549, > 100 µM (inactive); in the assay on HCT-15, greater than 100 µM; in the assay on HOP-62 it was > 100 µM (inactive); with HOP-92 it was > 100 µM (inactive). For the same compound, the GI50 in the assay on IGROV-1, in the assay with K562, with KM12, with M14, in the assay with NCI-H23 and in the assay with NCI-H522 was > 100 µM (inactive) in each case. Moreover, the GI50 in the assay on OVCAR-4, in the assay with SK-MEL-28 and with TK-10 was > 100 µM (inactive) in each case.
As for `O=C1/C(=C/c2ccc(OC(=O)c3ccccc3)cc2)CCC/C1=C\c1ccc(OC(=O)c2ccccc2)cc1`, the GI50 in the assay with A549 was > 100 µM (inactive); with BT-549 it was > 100 µM (inactive); with COLO 205, > 100 µM (inactive); in the assay on HCT-15, greater than 100 µM; in the assay on HOP-62, > 100 µM (inactive); with HOP-92, > 100 µM (inactive). Also, the GI50 in the assay with IGROV-1, in the assay with KM12, with M14, with MCF7, with NCI-H23 and in the assay on NCI-H522 was > 100 µM (inactive) in each case. Also, the GI50 with OVCAR-4, in the assay with RPMI-8226, in the assay on SK-MEL-28, with T47D and in the assay with TK-10 was > 100 µM (inactive) in each case.
As to `COC(=O)[C@@H]1CCCN1CCN1CCC[C@H]1C(=O)OC`, the GI50 in the assay on A498 is > 100 µM (inactive); with A549, > 100 µM (inactive); in the assay on COLO 205, > 100 µM (inactive); with HCT-15, greater than 100 µM; with HOP-62 it was > 100 µM (inactive); in the assay on HOP-92, > 100 µM (inactive). The GI50 in the assay with K562, in the assay with KM12, in the assay with M14, in the assay with MCF7, in the assay with NCI-H23 and in the assay on NCI-H522 was > 100 µM (inactive) throughout. Further, the GI50 with OVCAR-4, with RPMI-8226, in the assay on SK-MEL-28, in the assay with SK-OV-3, with T47D and in the assay with TK-10 was > 100 µM (inactive) in each case.
With `C[C@@]1(OC(=O)c2cc([N+](=O)[O-])cc([N+](=O)[O-])c2)C[C@@H]2CCCC[C@@H]21`, the GI50 in the assay on A549 is > 100 µM (inactive); in the assay on BT-549 it was > 100 µM (inactive); with COLO 205 it was > 100 µM (inactive); with HCT-15, greater than 100 µM; in the assay on HOP-62 it was > 100 µM (inactive); with IGROV-1, > 100 µM (inactive). For the same compound, the GI50 with K562, in the assay on KM12, in the assay on M14, in the assay on MCF7, with NCI-H23 and with NCI-H522 was > 100 µM (inactive) throughout. Further, the GI50 in the assay on OVCAR-4 is > 100 µM (inactive); with RPMI-8226, 31.6 µM (inactive); with SK-MEL-28 it was > 100 µM (inactive); with SK-OV-3, > 100 µM (inactive); with T47D it was > 100 µM (inactive); with TK-10 it was > 100 µM (inactive).
`COc1ccc(C(OCC2OC(n3ccc(NC(=O)c4ccccc4)nc3=O)CC2OP2(=S)SCCS2)(c2ccccc2)c2ccc(OC)cc2)cc1` (stereo not given): the GI50 with A549 was 56.2 µM (inactive); in the assay with BT-549, 25.9 µM (inactive); with COLO 205 it was > 10 µM (inactive); with HCT-15, 33.5 µM; with HOP-62 it was 20.7 µM (inactive); in the assay with IGROV-1, 33.5 µM (inactive). Moreover, the GI50 in the assay with K562 is > 100 µM (inactive); with M14, 24.9 µM (inactive); in the assay with MCF7, 37.1 µM (inactive); in the assay on NCI-H23, 43.2 µM (inactive); with NCI-H522, 22.1 µM (inactive); in the assay with OVCAR-4, 30.1 µM (inactive). Further, the GI50 in the assay on RPMI-8226 was > 100 µM (inactive); with SK-MEL-28, 30 µM (inactive); in the assay with SK-OV-3 it was 25.2 µM (inactive); in the assay with T47D, 36.3 µM (inactive); in the assay on TK-10, > 100 µM (inactive).
Turning to `COc1cc(Cc2nccc3cc(OC)c(OC)cc23)c(/N=N/N(C)C)cc1OC`, the GI50 is 23.4 µM (inactive) in the assay with A549; 18.2 µM (inactive) in the assay with BT-549; 14.4 µM (inactive) in the assay with COLO 205; 5 µM in the assay with HCT-15; 23.7 µM (inactive) in the assay on HOP-62; 13.5 µM (inactive) in the assay on IGROV-1. In addition, the GI50 is 4.28 µM (inactive) in the assay on K562; 18.7 µM (inactive) in the assay with KM12; 17.5 µM (inactive) with M14; 14.6 µM (inactive) in the assay on MCF7; 19.3 µM (inactive) in the assay on NCI-H23; 20.5 µM (inactive) in the assay on OVCAR-4. For the same compound, the GI50 was 4.73 µM (inactive) with RPMI-8226; 11.2 µM (inactive) in the assay on SK-MEL-28; 18.5 µM (inactive) in the assay on SK-OV-3; 5.36 µM (inactive) with T47D; 20.4 µM (inactive) in the assay on TK-10.
Take `S=C1CC(c2ccccc2)Sc2cc(Cl)ccc2N1` (stereo not given): the GI50 in the assay on A549 is 5.68 µM (inactive); with BT-549 it was 8.79 µM (inactive); with COLO 205, 5.02 µM (inactive); in the assay on HCT-15 it was 1.32 µM; in the assay with HOP-62, 5.61 µM (inactive); in the assay on IGROV-1 it was 16 µM (inactive). Besides, the GI50 in the assay on K562 is 0.64 µM (active); with KM12 it was 3.97 µM (inactive); with M14 it was 3.12 µM (inactive); in the assay with MCF7, 4.34 µM (inactive); with NCI-H23, 5.41 µM (inactive); in the assay with NCI-H522 it was 2.21 µM (inactive). Moreover, the GI50 was 13.2 µM (inactive) in the assay on OVCAR-4; 43.5 µM (inactive) in the assay with RPMI-8226; 8.73 µM (inactive) in the assay on SK-MEL-28; 7.35 µM (inactive) in the assay on SK-OV-3; 21.6 µM (inactive) with T47D; 16.2 µM (inactive) with TK-10.
As to `O=C1C(Cl)C(c2cccc(Br)c2)N1c1c(O)c(Cl)cc(Br)c1Cl` (stereo not given), the GI50 in the assay with A549 is 17.3 µM (inactive); in the assay with BT-549 it was 25.8 µM (inactive); with COLO 205 it was 8.63 µM (inactive); in the assay with HCT-15, 2.32 µM; in the assay on HOP-62 it was 13.8 µM (inactive); in the assay with HOP-92 it was 6.93 µM (inactive). In addition, the GI50 in the assay with IGROV-1 is 1.25 µM (inactive); with K562 it was 15.9 µM (inactive); in the assay on KM12, 16.7 µM (inactive); with M14 it was 13.9 µM (inactive); in the assay on MCF7, 12.1 µM (inactive); with NCI-H23, 16.6 µM (inactive). Besides, the GI50 in the assay with NCI-H522 is 14.1 µM (inactive); in the assay on OVCAR-4 it was 12.3 µM (inactive); in the assay on RPMI-8226, 14.4 µM (inactive); in the assay with SK-OV-3 it was 18.3 µM (inactive); with T47D it was 15.2 µM (inactive); with TK-10 it was 19 µM (inactive).
On to `COC(=O)C(C)(Cc1ccc2c(c1)nnn2C(C)=O)NC(C)=O` (stereo not given), for which the GI50 in the assay with A549 was > 100 µM (inactive); in the assay on BT-549 it was > 100 µM (inactive); with COLO 205 it was > 100 µM (inactive); in the assay with HCT-15, greater than 100 µM; with HOP-92, > 100 µM (inactive); in the assay with IGROV-1 it was > 100 µM (inactive). Also, the GI50 with K562, in the assay on KM12, with M14, in the assay on MCF7, in the assay with NCI-H23 and in the assay on NCI-H522 was > 100 µM (inactive) throughout. Besides, the GI50 with OVCAR-4, with RPMI-8226, with SK-MEL-28, in the assay with SK-OV-3, with T47D and in the assay on TK-10 was > 100 µM (inactive) in each case.
With `CC(C)(C)c1ccc(O)c(C(O)c2ccccn2)c1` (stereo not given), the GI50 in the assay with A549 was 98.2 µM (inactive); in the assay on BT-549 it was > 100 µM (inactive); with COLO 205, > 100 µM (inactive); in the assay with HCT-15, 35.4 µM; with HOP-62, > 100 µM (inactive); in the assay with IGROV-1, > 10 µM (inactive). Also, the GI50 in the assay with K562 is 42.9 µM (inactive); with KM12, 94 µM (inactive); in the assay on MCF7, 77.8 µM (inactive); in the assay with NCI-H23, 56.1 µM (inactive); in the assay with NCI-H522 it was 68.7 µM (inactive); in the assay on RPMI-8226, 58.5 µM (inactive). The GI50 with SK-MEL-28 was > 100 µM (inactive); in the assay on T47D it was 34.9 µM (inactive); in the assay with TK-10, > 100 µM (inactive).
For `COc1c(Br)cc(/C=C(\C#N)c2ccccn2)cc1Br`, the GI50 was < 0.01 µM (active) with A498; > 100 µM (inactive) with A549; 22.8 µM (inactive) in the assay on BT-549; > 100 µM (inactive) with COLO 205; 84.9 µM with HCT-15; 22.2 µM (inactive) in the assay on HOP-62. The GI50 was 51.4 µM (inactive) in the assay with IGROV-1; > 100 µM (inactive) in the assay on K562; > 100 µM (inactive) in the assay with KM12; > 100 µM (inactive) with M14; 26.1 µM (inactive) in the assay with MCF7; 41.7 µM (inactive) in the assay on NCI-H23. The GI50 was > 100 µM (inactive) with NCI-H522; > 100 µM (inactive) in the assay on RPMI-8226; > 100 µM (inactive) in the assay on SK-MEL-28; 15.3 µM (inactive) in the assay on SK-OV-3; 67.6 µM (inactive) in the assay on TK-10.
For `Cc1cc(O)no1` [HYMEXAZOL], the GI50 in the assay on A549 is > 100 µM (inactive); with BT-549, > 100 µM (inactive); in the assay with COLO 205, > 100 µM (inactive); with HCT-15, greater than 100 µM; in the assay on HOP-62 it was > 100 µM (inactive); with HOP-92, > 100 µM (inactive). The GI50 with IGROV-1, in the assay with K562, with M14, with MCF7, in the assay on NCI-H23 and with NCI-H522 was > 100 µM (inactive) in each case. For the same compound, the GI50 in the assay on OVCAR-4, in the assay on RPMI-8226, in the assay on SK-MEL-28, with SK-OV-3 and in the assay with TK-10 was > 100 µM (inactive) throughout.

As a reminder, the GI50 is the concentration giving 50% growth inhibition.
